The record followed here is patent publication US20180110747A1, “USE OF THIA OXO COMPOUNDS FOR LOWERING APO C3” (Pronova Biopharma Norge AS, priority 2015, published 2018).

Structures are written as SMILES.

For series [1], the system named is plasma apoC-III and other lipid parameters. Put plainly: Example 25B Phase II clinical study, mixed dyslipidemia (TG 200-499 mg/dL) on statins, 12 weeks. Type of series: in vivo, human. The settings on record: 600 mg QD. As to the method: This study investigated patients with fasting plasma TG levels between 200 and 499 mg/dL and non-high density lipoprotein cholesterol (non-HDL-C) above 130 mg/dL already receiving treatment with statins. The primary objective of this study was to evaluate the efficacy of Compound A (Example 2) 600 mg QD orally by assessment of the percentage change in triglycerides non-HDL-C from baseline after 12. weeks of treatment. One of the secondary objectives was to evaluate the impact of Compound A on plasma levels of apoC-III.
This Phase II, multicenter, proof of concept study consisted of a 6- to 8-week screening period (which included a 4- or 6-week diet and lifestyle stabilization/washout period and a 2-week TG and non-HDL-C qualifying period), and a 12-week, double-blind, randomized, parallel group, placebo-controlled treatment period.
After confirmation of qualifying fasting TG and non-HDL-C values, eligible subjects entered the 12-week, randomized, double-blind treatment period. At Visit 4 (Week 0), subjects were randomly assigned in a 1:1 ratio to 1 of the following treatment groups: Compound A 600 mg QD or placebo QD.
The population for this study was men and women (women of childbearing potential were required to use adequate methods to avoid pregnancy) between the ages of 18 to 79 years of age, inclusive. Subjects on stable lipid-lowering statin therapy and subjects not on non-statin lipid-lowering therapy were eligible to enroll in the study. Subjects were required to have an average fasting TG level between […] and non-HDL-C values above 130 mg/dL from Visit 2 and Visit 3 values or Visit 3 and Visit 3.1 values prior to randomization.
The ITT Population was the primary analysis population. All efficacy analyses were performed on the ITT Population.
(§1) Summary statistics (n, mean, standard deviation [SD], median, minimum, and maximum) for the baseline and post-baseline measurements, the percent changes, or changes from baseline were presented by treatment group and by visit for all efficacy variables analyzed.
The primary efficacy analysis was performed using an ANCOVA model with randomization as factor and baseline non-HDL-C value as a covariate. The least-squares means, standard errors, and 2-tailed 95% CIs for each treatment group and for the comparison between Compound A and placebo were provided.
The primary efficacy analysis was based on the […].
The population recruited for the current study included men (58.4%) and women ([…]) with a mean age of 58.3 years. All subjects were required to be on statin therapy (with or without ezetimibe) during the study. All other non-statin lipid-altering medications were discontinued at screening. Mean compliance to study medication during the study was 97.2% for the placebo group and 95.3% for the Compound A group.
The baseline mean non-HDL-C level for the study population was 165.9 mg/dL; the baseline median TG level was 262.0 mg/dL.

The subject of the next series is apoC-III. Description: Hepatic apoC-III gene expression in APOE*3Leiden transgenic mice on Western-type diet. Type of series: in vivo, mouse. The conditions noted are these: 0.3 mmol/kg bw/day orally as admix to WTD, 4 weeks. From the text: The APOE*3Leiden transgenic mouse is expressing a variant of the human apolipoprotein E3 (APOE3), the APOE*3Leiden, in addition to the human apolipoprotein C1 (APOC1). […] In contrast to normal wild-type mice, the APOE*3Leiden transgenic mice are highly responsive to diet and hypolipidemic drugs affecting plasma VLDL and chylomicron levels (Van Vlijmen B et al, Diet-induced hyperlipoproteinemia and atherosclerosis in apolipoprotein E3-Leiden transgenic mice, J Clin Invest 1994; 93: 1403-1410; Groot PHE, et al. Quantitative assessment of aortic atherosclerosis in apoE3Leiden transgenic mice and its relationship to serum cholesterol exposure, Arterioscler Thromb Vase Biol 1996; 16: 926-933). Consequently, this model is appropriate to evaluate effects of lipid lowering drugs.
In this study, female APOE*3Leiden transgenic mice were put on a semi-synthetic Western-type diet (WTD; 15% cocoa butter, 40% sucrose and 0.25% cholesterol; all w/w). […]
Liver tissues were stored in RNA later (Qiagen) at −80° C. […] Each sample was measured in 3 parallels, and the results are presented as the mean value relative to control (WTD without addition), The fold change in gene expression was calculated by the ΔΔCt method, using Rplp0 as housekeeping gene and the mean of the control samples as calibrator.

In series [2] the test system is plasma apoC-III and other lipid parameters. Put plainly: Example 25A Phase II clinical study, severe hypertriglyceridemia (TG above 500 mg/dL), 12 weeks. The format is in vivo, human. The settings on record: 600 mg QD. As to the method:
This study investigated patients with fasting plasma triglyceride levels above 500 mg/dL The primary objective of this study was to evaluate the efficacy of Compound A (Example 2) 600 mg once daily (QD) orally by assessment of the percentage change in triglycerides (TG) from baseline after 12 weeks of treatment. One of the secondary objectives was to evaluate the impact of Compound A on plasma levels of apoC-III.
This Phase II, multicenter, proof of concept study consisted of a 6- to 8-week screening period (which included a 4- or 6-week diet and lifestyle stabilization/washout period and a 2-week TG qualifying period), and a 12-week, double-blind, randomized, parallel group, placebo-controlled treatment period.
After confirmation of qualifying fasting TG values, eligible subjects entered the 12-week, randomized, double-blind treatment period. At Visit 4 (Week 0), subjects were randomly assigned in a 1:1 ratio to 1 of the following treatment groups: Compound A 600 mg QD or placebo QD.
Approximately 43 subjects per treatment group (approximately 86 subjects total) were to be randomized in this study. Stratification was by baseline TG level (≤700 mg/dL or >700 mg/dL), statin use at randomization, and gender.
The population for this study was men and women (women of childbearing potential were required to use adequate methods to avoid pregnancy) between the ages of 18 to 79 years of age, inclusive. Subjects on stable lipid-lowering statin therapy and subjects not on non-statin therapy were eligible to enroll in the study. Subjects were required to have an average fasting TG level ≥500 mg/dL, and ≤1500 mg/dL from Visit 2 and Visit 3 values or Visit 3 and Visit 3.1 values prior to randomization.
The ITT Population was the primary analysis population, All efficacy analyses were performed on the ITT Population.
as §1
The primary efficacy analysis was performed using an analysis of covariance (ANCOVA) model with treatment, gender, and the use of statin therapy at randomization as factors and baseline TG value as a covariate. The least-squares means, standard errors, and 2-tailed 95% confidence intervals (CIs) for each treatment group and for the comparison between Compound A and placebo were provided.
An ANCOVA model was used for the analysis of secondary efficacy variables with treatment, gender, and the use of statin therapy at randomization as factors and the baseline value of the respective efficacy variable as a covariate.
The population recruited for the current study included men (69.0%) and women (31.0%) with a mean age of 52.5 years. approximately 21% of subjects in both treatment groups received statin therapy through the study. All other non-statin lipid-altering medications were discontinued at screening. Mean compliance to study medication during the study was 96.5% for the placebo group and 99.9% for the Compound A 600 mg group.

A further series deals with Apo C-III. Put plainly: Example 25C Phase Ib clinical study, hypercholesterolemia, 4 weeks. The format is in vivo, human. The settings on record: 600 mg QD, male hypercholesterolemic subjects withdrawn from statin, statistically significant. The protocol: This study investigated subjects with fasting LDL-C of at least […] (˜97 mg/dl). The objective of the study was to determine the pharmacodynamics and lipid lowering effects of Compound A (Example 2) following 4 weeks of treatment in male, hypercholesterolemic subjects withdrawn from stable statin therapy.
The population for this study consisted of men between 18 and 65 years of any ethnic origin and with a BMI between 18.0 and 35.0 kg/m^2.
This Phase Ib study consisted of a 4-5 week screening period, and a 4 week double-blind, randomized, placebo-controlled treatment period.
All subjects had to be on lipid-lowering statin therapy for at least 3 months prior to the first screening visit, and at stable statin dose for at least 4 weeks prior to the first screening vist.
Statin treatment was withdrawn at the first screening visit, and remained withdrawn for the entire screening period. […]
Blood lipids were measured at the end of the screening period and after 4 weeks of treatment, Exploratory pharmacodynamic measurements included LDL-C, VLDL-C, TC, TO, HDL-C, Non-HDL-C, and Apo B. The impact of Compound A on Apo C-III was also measured.
Summary statistics for baseline is given as mean with coefficient of variance. The mean changes from baseline with 95% confidence intervals were presented by treatment group for efficacy variables analyzed. […]

Series [3] can be described thus: In-vitro digestion studies in a bio relevant media. The format is in vitro ADME. From the text:
Examples 1-23 are exemplary and one skilled in the art would understand how to apply these general methods to arrive at other compounds within the scope of Formula (I). Compounds of the present disclosure may be in the form of a pharmaceutically acceptable salt or ester. For example, the compounds of Formula (I) may be in the form of esters, such as a phospholipid, a glyceride or a C1-C6-alkyl ester. In at least one embodiment, the ester is chosen from a glyceride or a C1-C6-alkyl ester. In at least one embodiment, the ester is chosen from a triglyceride, a 1,2 diglyceride, a 1,3-diglyceride, a 1-monoglyceride, a 2-monoglyceride, a methyl ester, an ethyl ester, a propyl ester, a isopropyl ester, a n-butyl ester and a tert-butyl ester. In at least one embodiment, the compound of Formula (I) is present as a methyl ester, an ethyl ester, an isopropyl ester, a n-butyl ester or a tert-butyl ester, for example as a methyl ester or an ethyl ester.

[4] abbreviates: mixed dyslipidemia, TG = 200-499 mg/dl, on statin, 12 weeks.
The mark [5] stands for this setting: subjects with TG >500 mg/dl, 12 weeks.

For `CC/C=C\C/C=C\C/C=C\C/C=C\C/C=C\CCCCOC(CC)C(=O)O` (centres unmarked) [Compound A, 2-((5Z,8Z,11Z,14Z,17Z)-icosa-5,8,11,14,17-pentaen-1-yloxy)butanoic acid], the “LS mean percent change in ApoC-III vs placebo” value in series [1] (12-week completer population, 95% CI (−28.8, −12.7)) is recorded as −20.8%. In addition, the “LS mean percent change in apoC-III vs baseline” value in series [1] (12-week completer population, 95% CI (−38.4, −26.6)) is listed as −32.5%. In series [1] (setting [4]), the “Apo B, median % change from baseline” value is −6%; the “ApoC-III, median % change from baseline” value was −35%; the “LDL-C, median % change from baseline” value is reported as 0%; the “Non-HDL-C, median % change from baseline” value is listed as −10%. Further, in series [1] (setting [4]), the “TG, median % change from baseline” value is listed as −43% and the “VLDL-C, median % change from baseline” value is given as −39%. Besides, in series [1] (mixed dyslipidemic patient population), the “median reduction in apoC-III” value worked out at 35%. Further, the “effect on hepatic apoC-III expression compared with reference Compound 12” value in the series with apoC-III is “more potent”. Also, the “hepatic apoC-III expression versus mice fed a standard WTD (FIG. 1)” value in the series with apoC-III (P<0.05, Student T-test) is listed as “significantly lower”. The “LS mean percent change in apoC-III versus placebo” value in series [2] (12 weeks, ITT Population, 95% CI (−46.5, −22.8)) is −34.7%. Further, in series [2] (12 weeks, ITT Population, 95% CI (−47.5, −28.5)), the “LS mean percent change in apoC-III vs baseline” value is listed as −38.0%. Besides, the “median reduction in apoC-III” value in series [2] (severe HTG patient population) amounted to 41%. In series [2] (setting [5]), the “ApoC-III, median % change from baseline” value is listed as −41%; the “HDL-C, median % change from baseline” value came to 24%; the “LDL-C, median % change from baseline” value was 43%; the “Non-HDL-C, median % change from baseline” value is −8%. In series [2] (setting [5]), the “TG, median % change from baseline” value is listed as −51% and the “VLDL-C, median % change from baseline” value is −51%. For the same compound, the “mean percent change in Apo C-III vs baseline” value with Apo C-III was −42%.

As for `CC/C=C\C/C=C\C/C=C\C/C=C\C/C=C\CCCCOC(CC)C(=O)OCC` (centres unmarked) [Example 12, ethyl 2-((5Z,8Z,11Z,14Z,17Z)-icosa-5,8,11,14,17-pentaen-1-yloxy)butanoate], the “hydrolysis in the gastrointestinal tract, from in-vitro digestion” value in series [3] was “rapidly hydrolyzed”.

For the compound `CC/C=C\C/C=C\C/C=C\C/C=C\C/C=C\CCCCOC(CC)C(=O)OCCCC` (centres unmarked) [Example 15, butyl 2-(((5Z,8Z,11Z,14Z,17Z)-icosa-5,8,11,14,17-pentaen-1-yl)oxy)butanoate], the “hydrolysis in the gastrointestinal tract, from in-vitro digestion” value in series [3] is “rapidly hydrolyzed”.
